Several values for one entry are separate records, joined by “and”; a condition that tells them apart may be missing. Identical values can stand only once.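 These data come from cells grown in 96-well plates and exposed to compound for 48 hours at five concentrations. GI50 is the concentration that inhibits growth by half. TGI is the concentration that stops growth completely.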
Tests used:
Experiment in all cases: inhibition of tumour cell growth, NCI panel, 48 h
RXF 393 renal = tested on: RXF 393 renal
UACC-62 melanoma = tested on: UACC-62 melanoma
SNB-75 CNS = tested on: SNB-75 CNS
SNB-19 CNS = tested on: SNB-19 CNS
NCI-H522 lung = tested on: NCI-H522 lung
SK-MEL-5 melanoma = tested on: SK-MEL-5 melanoma
SK-OV-3 ovarian = tested on: SK-OV-3 ovarian
NCI-H23 lung = tested on: NCI-H23 lung
OVCAR-5 ovarian = tested on: OVCAR-5 ovarian
NCI-H226 lung = tested on: NCI-H226 lung

Structure (SMILES)	GI50 (RXF 393 renal) [µM]	TGI (RXF 393 renal)	GI50 (UACC-62 melanoma) [µM]	TGI (UACC-62 melanoma)	GI50 (SNB-75 CNS) [µM]	TGI (SNB-75 CNS)	GI50 (SNB-19 CNS) [µM]	TGI (SNB-19 CNS)	GI50 (NCI-H522 lung) [µM]	TGI (NCI-H522 lung) [µM]	GI50 (SK-MEL-5 melanoma) [µM]	TGI (SK-MEL-5 melanoma)	GI50 (SK-OV-3 ovarian) [µM]	TGI (SK-OV-3 ovarian)	GI50 (NCI-H23 lung) [µM]	TGI (NCI-H23 lung)	GI50 (OVCAR-5 ovarian) [µM]	TGI (OVCAR-5 ovarian) [µM]	GI50 (NCI-H226 lung) [µM]	TGI (NCI-H226 lung)
C[N+](C)=c1ccc2nc3c(cc(NCCCNc4cc5oc6cc(=[N+](C)C)ccc-6nc5c5ccccc45)c4ccccc43)oc-2c1	6.04	37.5 µM	2.3	6.88 µM	1.56	3.64 µM	3.6	19.4 µM	1.5	4.59	1.41	2.79 µM	18.7	42.3 µM	1.61	5.45 µM	2.85	10.9	22.1	63.7 µM
C[C@@H]1CC[C@@]2(NC1)O[C@H]1C[C@H]3[C@@H]4CC[C@H]5C[C@@H](O)CC[C@]5(C)[C@H]4CC[C@]3(C)[C@H]1[C@@H]2C	–	> 100 µM	–	> 100 µM	–	> 100 µM	–	> 100 µM	–	> 100	–	> 100 µM	–	> 100 µM	–	> 100 µM	–	> 100	–	> 100 µM
COc1ccc2c(c1)CN1CCc3c(cc(OC)c(OC)c3OC)C1C2 (stereo not drawn)	–	> 100 µM	–	> 100 µM	–	> 100 µM	–	> 100 µM	–	> 100	–	> 100 µM	–	> 100 µM	–	> 100 µM	–	> 100	–	> 100 µM
COc1ccc(OC(C)C(=O)O)c2c(=O)ccccc12 (stereo not drawn)	–	> 100 µM	–	> 100 µM	–	> 100 µM	–	> 100 µM	–	> 100	–	> 100 µM	–	> 100 µM	–	> 100 µM	–	> 100	–	> 100 µM
O=c1[nH]c(=O)n(C2CC(O)C(CO)O2)cc1C(F)(F)F (stereo not drawn)	9.38	> 100 µM	2.59	> 91.8 µM	> 40.9	> 100 µM	2.96	> 100 µM	18.3	> 100	0.399	> 100 µM	10.1	> 100 µM	1.95	> 100 µM	> 100	> 100	20.7	> 100 µM
COc1cc2nccc(Oc3ccc(NC(=O)c4cn(C(C)C)c(=O)n(-c5ccc(F)cc5)c4=O)cc3F)c2cc1OC	> 21.1	> 100 µM	6.03	> 100 µM	1.03	> 21.9 µM	> 100	> 100 µM	> 22.5	> 100	> 100	> 100 µM	> 100	> 100 µM	> 100	> 100 µM	5.6	> 100	6.76	> 21.8 µM
COc1cc(/C=N/N=C(\N)NO)c([N+](=O)[O-])cc1OC	–	65.2 µM	–	59 µM	–	78.9 µM	–	> 100 µM	–	34.4	–	50.9 µM	–	> 100 µM	–	99.4 µM	–	> 100	–	54.4 µM
O=c1/c(=N\Nc2ccccc2)c2cccc3ccc4cccc1c4c32	–	> 100 µM	–	> 100 µM	–	> 100 µM	–	> 100 µM	–	> 100	–	> 100 µM	–	> 100 µM	–	> 100 µM	–	> 100	–	> 100 µM
CC[PH+](CC)CC.[Cl][Au]	0.447	1.66 µM	1.16	2.63 µM	2.3	6.99 µM	2.26	6.14 µM	0.122	0.31	1.14	2.44 µM	16.4	30 µM	1.68	3.42 µM	15.2	28.5	4.49	9.32 µM
CCC1=C(CC2NCCc3ccccc32)CC2c3cc(OC)c(OC)cc3CCN2C1 (stereo not drawn)	2.67	13.5 µM and 5.3 µM	13.9	27.5 µM and 6.66 µM	4.09	13.8 µM and 2.47 µM	3.6	13.7 µM and 11.9 µM	4.22	–	3.39	13.1 µM and 2.7 µM	4.07	25.6 µM and 17.1 µM	5.2	35.9 µM and 13.1 µM	6.15	–	4.7	37.4 µM and 4.74 µM
CCCCN(CCCC)CC(C(C)=O)C(c1ccccc1)c1c(O)c2ccccc2oc1=O (stereo not drawn)	–	> 100 µM	–	> 100 µM	–	76.3 µM	–	> 100 µM	–	> 100	–	> 100 µM	–	> 100 µM	–	> 100 µM	–	> 100	–	> 100 µM
Cc1ccc(C(=O)NC2CC2)cc1-c1ccc2[nH]ncc2c1	> 25	> 25 µM	> 25	> 25 µM	> 13	> 25 µM	> 25	> 25 µM	> 25	> 25	> 25	> 25 µM	> 25	> 25 µM	> 25	> 25 µM	> 25	> 25	> 25	> 25 µM
O/N=C/c1ccc(O)c(O)c1	–	> 100 µM	–	> 100 µM	–	> 100 µM	–	> 100 µM	–	> 100	–	> 100 µM	–	> 100 µM	–	> 100 µM	–	> 100	–	> 100 µM
CN(C)CCCNc1nc2ccccc2c2[nH]c3ccccc3c12	1.23	3.55 µM	4.01	11.9 µM	1.16	3.78 µM	1.57	6.2 µM	1.32	11.1	3.02	8.33 µM	1.49	6.11 µM	0.752	1.64 µM	1.28	9.36	1.26	4.22 µM
CNC(=O)c1cncc(/C=C/c2ccccc2Cl)c1	> 25	> 25 µM	> 25	> 25 µM	> 19.7	> 25 µM	> 25	> 25 µM	> 25	> 25	> 25	> 25 µM	> 25	> 25 µM	> 25	> 25 µM	> 25	> 25	> 25	> 25 µM
COc1cc(C(=O)c2cocc2C(=O)c2ccc3c(c2)OCO3)cc(OC)c1OC	–	4.43 µM	–	> 47.3 µM	–	10.4 µM	–	35.3 µM	–	1.85	–	25.5 µM	–	47.3 µM	–	26.2 µM	–	> 66.3	–	21.1 µM
